According to patent US7407973B2, “Use of pirfenidone in therapeutic regimens” (Intermune, Inc., priority 2003, dated 2008):

Columns and labels:
Format in all cases: biochemical
[1] = biological target: cSRC (Homo sapiens, UniProt P12931); test: Enzymatic activity of human kinase in presence of pirfenidone; settings: percent of control activity in absence of pirfenidone, concentration not given
Method: (§1) Enzymatic activity of various human kinases was assayed in the presence and the absence of pirfenidone. Percent enzyme activity of various human enzymes in the presence of substrate and pirfenidone are shown in FIGS. 1-5, and in Table 2, below, where “percent enzyme activity” is the percent of the control activity (e.g., in the absence of pirfenidone): […]

[2] = biological target: PDK1 (Homo sapiens, UniProt O15530); test: as above; settings: percent of control activity in absence of pirfenidone, concentration not given
Method: as §1

[3] = biological target: Rsk2 (Homo sapiens, UniProt P51812); test: as above; settings: percent of control activity in absence of pirfenidone, concentration not given
Method: as §1

[4] = biological target: PDGFRβ (Homo sapiens, UniProt P09619); test: as above; settings: percent of control activity in absence of pirfenidone, concentration not given
PDGFRβ, sequence (P09619 33-1106): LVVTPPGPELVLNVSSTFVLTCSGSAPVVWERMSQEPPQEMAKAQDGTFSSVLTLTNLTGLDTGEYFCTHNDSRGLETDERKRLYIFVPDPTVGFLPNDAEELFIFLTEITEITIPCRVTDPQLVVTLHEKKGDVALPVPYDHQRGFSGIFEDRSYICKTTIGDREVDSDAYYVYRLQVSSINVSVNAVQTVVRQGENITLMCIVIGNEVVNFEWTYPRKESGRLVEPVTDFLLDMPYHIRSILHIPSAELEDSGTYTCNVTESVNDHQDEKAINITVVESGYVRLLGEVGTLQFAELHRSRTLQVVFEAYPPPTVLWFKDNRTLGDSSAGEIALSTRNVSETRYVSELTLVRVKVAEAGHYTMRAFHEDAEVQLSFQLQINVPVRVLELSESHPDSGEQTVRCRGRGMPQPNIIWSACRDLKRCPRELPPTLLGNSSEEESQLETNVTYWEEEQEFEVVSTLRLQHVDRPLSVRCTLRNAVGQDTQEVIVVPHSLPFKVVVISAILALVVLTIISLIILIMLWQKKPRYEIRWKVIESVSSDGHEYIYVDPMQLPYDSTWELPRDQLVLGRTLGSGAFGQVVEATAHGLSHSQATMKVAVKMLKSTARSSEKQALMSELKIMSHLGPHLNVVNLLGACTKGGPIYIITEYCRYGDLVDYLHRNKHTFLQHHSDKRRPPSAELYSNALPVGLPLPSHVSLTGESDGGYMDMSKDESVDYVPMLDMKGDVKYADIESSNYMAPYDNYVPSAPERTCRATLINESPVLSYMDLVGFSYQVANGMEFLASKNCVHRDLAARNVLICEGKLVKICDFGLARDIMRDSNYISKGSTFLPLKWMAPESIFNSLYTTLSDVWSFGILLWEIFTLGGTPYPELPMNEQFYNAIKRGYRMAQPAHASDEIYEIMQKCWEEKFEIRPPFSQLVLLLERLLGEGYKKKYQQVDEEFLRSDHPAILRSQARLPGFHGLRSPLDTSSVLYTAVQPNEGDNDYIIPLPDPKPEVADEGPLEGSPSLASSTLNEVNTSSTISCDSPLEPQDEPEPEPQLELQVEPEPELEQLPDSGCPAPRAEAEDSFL
Method: as §1

[5] = biological target: IKKβ (Homo sapiens, UniProt O14920); test: as above; settings: percent of control activity in absence of pirfenidone, concentration not given
IKKβ, sequence (O14920 whole entry): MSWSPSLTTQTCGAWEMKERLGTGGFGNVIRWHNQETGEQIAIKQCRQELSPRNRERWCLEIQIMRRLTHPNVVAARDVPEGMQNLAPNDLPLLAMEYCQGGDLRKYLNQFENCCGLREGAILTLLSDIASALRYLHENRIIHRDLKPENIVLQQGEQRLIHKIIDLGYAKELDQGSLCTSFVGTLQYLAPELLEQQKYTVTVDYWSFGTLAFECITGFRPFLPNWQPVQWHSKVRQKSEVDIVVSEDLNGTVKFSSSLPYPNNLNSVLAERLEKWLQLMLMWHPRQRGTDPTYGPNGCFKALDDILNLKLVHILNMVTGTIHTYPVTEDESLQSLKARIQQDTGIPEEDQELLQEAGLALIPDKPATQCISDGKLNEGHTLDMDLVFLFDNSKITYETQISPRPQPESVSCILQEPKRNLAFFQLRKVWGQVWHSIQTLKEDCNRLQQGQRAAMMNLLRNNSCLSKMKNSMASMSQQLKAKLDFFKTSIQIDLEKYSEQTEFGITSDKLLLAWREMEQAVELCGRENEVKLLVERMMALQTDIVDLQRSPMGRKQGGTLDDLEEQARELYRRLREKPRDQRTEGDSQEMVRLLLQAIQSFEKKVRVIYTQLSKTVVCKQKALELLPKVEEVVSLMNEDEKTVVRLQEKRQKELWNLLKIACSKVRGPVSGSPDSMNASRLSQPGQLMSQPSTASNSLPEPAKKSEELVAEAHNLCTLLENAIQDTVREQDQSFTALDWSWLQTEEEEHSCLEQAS
Method: as §1

[6] = biological target: IR (Homo sapiens, UniProt P06213); test: as above; settings: percent of control activity in absence of pirfenidone, concentration not given
Method: as §1

[7] = biological target: CDK5/cyclinB (Homo sapiens, UniProt Q00535); test: as above; settings: percent of control activity in absence of pirfenidone, concentration not given
CDK5/cyclinB, sequence (Q00535 whole entry): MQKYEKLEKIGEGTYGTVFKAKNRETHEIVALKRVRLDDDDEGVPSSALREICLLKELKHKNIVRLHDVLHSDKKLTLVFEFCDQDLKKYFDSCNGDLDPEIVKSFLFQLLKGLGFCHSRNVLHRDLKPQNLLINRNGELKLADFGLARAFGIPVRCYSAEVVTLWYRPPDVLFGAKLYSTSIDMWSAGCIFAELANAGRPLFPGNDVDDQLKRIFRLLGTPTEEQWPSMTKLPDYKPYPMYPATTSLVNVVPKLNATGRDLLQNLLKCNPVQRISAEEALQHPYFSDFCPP
Method: as §1

[8] = biological target: SAPK2α (Homo sapiens, UniProt Q16539); test: as above; settings: percent of control activity in absence of pirfenidone, concentration not given
SAPK2α, sequence (Q16539 whole entry): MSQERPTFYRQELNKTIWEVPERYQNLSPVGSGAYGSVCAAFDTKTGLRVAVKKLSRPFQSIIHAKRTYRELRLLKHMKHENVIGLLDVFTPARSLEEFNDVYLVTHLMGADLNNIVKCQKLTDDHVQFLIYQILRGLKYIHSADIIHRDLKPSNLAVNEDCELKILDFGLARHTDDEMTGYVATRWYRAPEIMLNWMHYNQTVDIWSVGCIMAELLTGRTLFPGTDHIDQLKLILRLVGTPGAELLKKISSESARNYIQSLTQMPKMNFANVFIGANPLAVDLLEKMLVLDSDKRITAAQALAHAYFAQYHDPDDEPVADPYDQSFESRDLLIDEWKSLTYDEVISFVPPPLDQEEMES
Method: as §1

[9] = biological target: PKCα (Homo sapiens, UniProt P17252); test: as above; settings: percent of control activity in absence of pirfenidone, concentration not given
Method: as §1

[10] = biological target: MKK6 (Homo sapiens, UniProt P52564); test: as above; settings: percent of control activity in absence of pirfenidone, concentration not given
MKK6, sequence (P52564 whole entry): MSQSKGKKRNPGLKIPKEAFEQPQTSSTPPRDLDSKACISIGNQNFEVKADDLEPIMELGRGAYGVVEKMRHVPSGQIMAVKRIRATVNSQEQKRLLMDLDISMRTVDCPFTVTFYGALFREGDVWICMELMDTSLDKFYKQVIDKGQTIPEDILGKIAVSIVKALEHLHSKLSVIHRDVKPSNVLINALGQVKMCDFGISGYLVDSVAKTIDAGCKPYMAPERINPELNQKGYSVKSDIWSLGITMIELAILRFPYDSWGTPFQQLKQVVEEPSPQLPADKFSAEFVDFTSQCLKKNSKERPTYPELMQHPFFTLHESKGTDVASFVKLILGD
Method: as §1

[11] = biological target: SAPK4 (Homo sapiens, UniProt O15264); test: as above; settings: percent of control activity in absence of pirfenidone, concentration not given
Method: as §1

[12] = biological target: GSK3β (Homo sapiens, UniProt P49841); test: as above; settings: percent of control activity in absence of pirfenidone, concentration not given
Method: as §1

[13] = biological target: PRK2 (Homo sapiens, UniProt Q16513); test: as above; settings: percent of control activity in absence of pirfenidone, concentration not given
Method: as §1

[14] = biological target: Rsk1 (Homo sapiens, UniProt Q15418); test: as above; settings: percent of control activity in absence of pirfenidone, concentration not given
Method: as §1

[15] = biological target: Fyn (Homo sapiens, UniProt P06241); test: as above; settings: percent of control activity in absence of pirfenidone, concentration not given
Fyn, sequence (P06241 whole entry): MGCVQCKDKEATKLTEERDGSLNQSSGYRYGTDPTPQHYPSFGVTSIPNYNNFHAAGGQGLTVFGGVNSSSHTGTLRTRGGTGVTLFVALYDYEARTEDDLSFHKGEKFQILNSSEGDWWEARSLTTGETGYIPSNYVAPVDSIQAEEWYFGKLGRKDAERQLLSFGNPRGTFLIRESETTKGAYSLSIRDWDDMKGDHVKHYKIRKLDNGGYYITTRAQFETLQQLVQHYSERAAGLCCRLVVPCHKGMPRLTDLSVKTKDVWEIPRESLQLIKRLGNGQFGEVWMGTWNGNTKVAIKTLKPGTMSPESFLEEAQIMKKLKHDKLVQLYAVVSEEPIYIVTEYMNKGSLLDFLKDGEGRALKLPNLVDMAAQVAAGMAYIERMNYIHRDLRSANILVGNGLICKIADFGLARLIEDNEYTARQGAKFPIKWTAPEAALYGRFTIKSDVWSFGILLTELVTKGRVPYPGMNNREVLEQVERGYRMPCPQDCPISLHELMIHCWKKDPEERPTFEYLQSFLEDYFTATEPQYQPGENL
Method: as §1

[16] = biological target: MSK1 (Homo sapiens, UniProt O75582); test: as above; settings: percent of control activity in absence of pirfenidone, concentration not given
Method: as §1

[17] = biological target: TrkB (Homo sapiens, UniProt Q16620); test: as above; settings: percent of control activity in absence of pirfenidone, concentration not given
Method: as §1

[18] = biological target: c-RAF (Homo sapiens, UniProt P04049); test: as above; settings: percent of control activity in absence of pirfenidone, concentration not given
c-RAF, sequence (P04049 whole entry): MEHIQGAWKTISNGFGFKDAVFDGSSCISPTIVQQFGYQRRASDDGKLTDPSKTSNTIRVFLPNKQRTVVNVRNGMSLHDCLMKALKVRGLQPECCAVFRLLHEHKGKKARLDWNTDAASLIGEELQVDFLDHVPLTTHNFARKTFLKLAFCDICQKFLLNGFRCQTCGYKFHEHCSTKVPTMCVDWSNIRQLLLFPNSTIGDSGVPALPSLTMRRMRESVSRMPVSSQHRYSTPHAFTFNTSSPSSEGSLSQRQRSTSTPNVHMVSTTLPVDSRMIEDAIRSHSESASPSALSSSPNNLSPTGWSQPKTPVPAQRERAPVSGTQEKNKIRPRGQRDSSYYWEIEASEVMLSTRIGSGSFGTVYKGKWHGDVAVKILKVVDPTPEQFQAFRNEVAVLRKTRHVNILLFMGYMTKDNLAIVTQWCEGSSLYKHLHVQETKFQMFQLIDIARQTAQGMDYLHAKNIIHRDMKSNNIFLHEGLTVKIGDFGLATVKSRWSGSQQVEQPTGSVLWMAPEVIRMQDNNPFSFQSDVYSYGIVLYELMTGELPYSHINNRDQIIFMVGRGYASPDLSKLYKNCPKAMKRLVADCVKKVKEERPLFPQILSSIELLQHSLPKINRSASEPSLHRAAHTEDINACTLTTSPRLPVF
Method: as §1

[19] = biological target: CDK2/cyclinA (Homo sapiens, UniProt P24941); test: as above; settings: percent of control activity in absence of pirfenidone, concentration not given
Method: as §1

[20] = biological target: JNK3 (Homo sapiens, UniProt P53779); test: as above; settings: percent of control activity in absence of pirfenidone, concentration not given
Method: as §1

[21] = biological target: IGF-1R (Homo sapiens, UniProt P08069); test: as above; settings: percent of control activity in absence of pirfenidone, concentration not given
Method: as §1

[22] = biological target: CDK7/cyclinH/MAT1 (Homo sapiens, UniProt P50613); test: as above; settings: percent of control activity in absence of pirfenidone, concentration not given
CDK7/cyclinH/MAT1, sequence (P50613 whole entry): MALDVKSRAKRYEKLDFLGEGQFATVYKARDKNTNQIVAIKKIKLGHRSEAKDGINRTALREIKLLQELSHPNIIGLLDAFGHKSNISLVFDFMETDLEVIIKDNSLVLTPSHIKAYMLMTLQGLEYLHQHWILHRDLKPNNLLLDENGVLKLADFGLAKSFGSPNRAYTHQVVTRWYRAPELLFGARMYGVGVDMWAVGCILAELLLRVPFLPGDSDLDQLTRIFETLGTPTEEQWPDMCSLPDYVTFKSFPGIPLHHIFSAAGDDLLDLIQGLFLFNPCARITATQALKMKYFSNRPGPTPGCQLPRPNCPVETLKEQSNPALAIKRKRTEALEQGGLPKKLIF
CDK7/cyclinH/MAT1, sequence (P51946 whole entry partner): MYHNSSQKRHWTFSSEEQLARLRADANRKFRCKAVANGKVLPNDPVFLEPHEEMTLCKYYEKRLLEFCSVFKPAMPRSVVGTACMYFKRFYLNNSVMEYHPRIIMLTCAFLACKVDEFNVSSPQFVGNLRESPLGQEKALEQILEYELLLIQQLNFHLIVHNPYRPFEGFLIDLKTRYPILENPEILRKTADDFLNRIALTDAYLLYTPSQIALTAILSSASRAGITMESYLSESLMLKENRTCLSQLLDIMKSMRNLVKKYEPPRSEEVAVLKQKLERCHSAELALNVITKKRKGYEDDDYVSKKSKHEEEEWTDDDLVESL
CDK7/cyclinH/MAT1, sequence (P51948 whole entry partner): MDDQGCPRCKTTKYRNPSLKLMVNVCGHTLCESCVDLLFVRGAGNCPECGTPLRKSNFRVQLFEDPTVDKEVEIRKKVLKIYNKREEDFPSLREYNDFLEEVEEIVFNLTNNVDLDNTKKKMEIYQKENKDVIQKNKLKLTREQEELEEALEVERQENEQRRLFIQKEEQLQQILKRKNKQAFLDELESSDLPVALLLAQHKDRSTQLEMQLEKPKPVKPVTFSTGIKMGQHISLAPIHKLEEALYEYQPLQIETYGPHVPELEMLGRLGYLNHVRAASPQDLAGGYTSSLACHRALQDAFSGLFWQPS
Method: as §1

[23] = biological target: CK2 (Homo sapiens, UniProt P68400); test: as above; settings: percent of control activity in absence of pirfenidone, concentration not given
Method: as §1

[24] = biological target: Ax1 (Homo sapiens, UniProt P30530); test: as above; settings: percent of control activity in absence of pirfenidone, concentration not given
Method: as §1

[25] = biological target: CDK3/cyclinE (Homo sapiens, UniProt Q00526); test: as above; settings: percent of control activity in absence of pirfenidone, concentration not given
Method: as §1

[26] = system: MAPK1 (Homo sapiens); test: as above; settings: percent of control activity in absence of pirfenidone, concentration not given
Method: as §1

[27] = biological target: Yes (Homo sapiens, UniProt P07947); test: as above; settings: percent of control activity in absence of pirfenidone, concentration not given
Method: as §1

[28] = biological target: Lyn (Homo sapiens, UniProt P07948); test: as above; settings: percent of control activity in absence of pirfenidone, concentration not given
Method: as §1

[29] = biological target: Lck (Homo sapiens, UniProt P06239); test: as above; settings: percent of control activity in absence of pirfenidone, concentration not given
Method: as §1

[30] = biological target: PKA (Homo sapiens, UniProt P17612); test: as above; settings: percent of control activity in absence of pirfenidone, concentration not given
Method: as §1

[31] = biological target: SAPK3 (Homo sapiens, UniProt P53778); test: as above; settings: percent of control activity in absence of pirfenidone, concentration not given
Method: as §1

[32] = biological target: PKCη (Homo sapiens, UniProt P24723); test: as above; settings: percent of control activity in absence of pirfenidone, concentration not given
Method: as §1

[33] = biological target: CaMKIV (Homo sapiens, UniProt Q16566); test: as above; settings: percent of control activity in absence of pirfenidone, concentration not given
Method: as §1

[34] = biological target: Syk (Homo sapiens, UniProt P43405); test: as above; settings: percent of control activity in absence of pirfenidone, concentration not given
Method: as §1

[35] = biological target: Fes (Homo sapiens, UniProt P07332); test: as above; settings: percent of control activity in absence of pirfenidone, concentration not given
Method: as §1

[36] = biological target: PAK2 (Homo sapiens, UniProt Q13177); test: as above; settings: percent of control activity in absence of pirfenidone, concentration not given
Method: as §1

[37] = biological target: MEK1 (Homo sapiens, UniProt Q02750); test: as above; settings: percent of control activity in absence of pirfenidone, concentration not given
Method: as §1

[38] = biological target: PKCμ (Homo sapiens, UniProt Q15139); test: as above; settings: percent of control activity in absence of pirfenidone, concentration not given
Method: as §1

[39] = biological target: IKKα (Homo sapiens, UniProt O15111); test: as above; settings: percent of control activity in absence of pirfenidone, concentration not given
Method: as §1

[40] = biological target: PKCβII (Homo sapiens, UniProt P05771); test: as above; settings: percent of control activity in absence of pirfenidone, concentration not given
Method: as §1

[41] = system: PKCa; test: as above; settings: percent of control activity in absence of pirfenidone, concentration not given
Method: as §1

[42] = biological target: CDK2/cyclinE (Homo sapiens, UniProt P24941); test: as above; settings: percent of control activity in absence of pirfenidone, concentration not given
Method: as §1

[43] = system: SAPK; test: Human kinase panel, overall conclusion: SAPK
Method: as §1

% Activity [1]: 91% | % Activity [2]: 93% | % Activity [3]: 99% | % Activity [4]: 101% | % Activity [5]: 90% | % Activity [6]: 97% | % Activity [7]: 102% | % Activity [8]: 70% | % Activity [9]: 94% | % Activity [10]: 84% | % Activity [11]: 98% | % Activity [12]: 91% | % Activity [13]: 90% | % Activity [14]: 88% | % Activity [15]: 97% | % Activity [16]: 93% | % Activity [17]: 101% | % Activity [18]: 91% | % Activity [19]: 92% | % Activity [20]: 106% | % Activity [21]: 92% | % Activity [22]: 95% | % Activity [23]: 94% | % Activity [24]: 93% | % Activity [25]: 86% | % Activity [26]: 98% | % Activity [27]: 104% | % Activity [28]: 92% | % Activity [29]: 104% | % Activity [30]: 109% | % Activity [31]: 46% | % Activity [32]: 88% | % Activity [33]: 107% | % Activity [34]: 78% | % Activity [35]: 88% | % Activity [36]: 93% | % Activity [37]: 100% | % Activity [38]: 96% | % Activity [39]: 114% | % Activity [40]: 100% | % Activity [41]: 96% | % Activity [42]: 89% | Inhibition of SAPK (conclusion from Table 2 data) [43]: is an inhibitor of SAPK
Compound: Cc1ccc(=O)n(-c2ccccc2)c1 [pirfenidone, 5-methyl-1-phenyl-2-(1H)-pyridone]
